Experimental data reported in US20190255073A1, “ESTERS OF 3-POLYAMINE DERIVATIVES OF BILE ACIDS FOR THE TREATMENT OF INFECTIONS” (VIRBAC, priority 2016, published 2019).
In brackets after ≈: the same amount, converted by molar mass. Where two headings read alike, the source gives them in different places.

Legend:
[1] = system: P. aeruginosa (1051575); experiment: MIC determination by microplate dilution, P. aeruginosa animal strain; type: cell-based, Pseudomonas aeruginosa; details: Pseudomonas aeruginosa, Gram-negative, Mueller-Hinton medium, 24 h, 37° C.
Protocol: (§1) 1) Preparation of the Preculture
(§2) A negative control (2 mL of sterile culture medium)
(§3) A positive control (1940 μL of culture medium+40 μL of DMSO+20 μL of bacterial suspension) from a thawed biological strain (the biological strains are stored at −80° C. in glycerol).
(§4) The tubes were incubated at 37° C. for 24 hours at 100 rpm.
(§5) The microorganisms were handled under a type L2 laboratory fume cupboard and, before any handling, a UV cycle was programmed and only sterile material was used. […] The chemical compounds to be tested were prepared in a DMSO/methanol mixture (50/50) at a concentration of 5 mg/mL.
(§6) 2) Preparation of the Microplate for the Determination of the Minimum Inhibitory Concentration (MIC)
(§7) After 24 hours of incubation, a measurement of the optical density was taken using a spectrophotometer at 600 nm, collecting 100 μL of the bacterial suspension diluted in 900 μL of the sterile culture medium. This test required the use of a 96-well plate and the required volume of the microbial suspension to be seeded was calculated for an OD corresponding to a value equal to 0.01 in each well. In this plate, the first line corresponded to the negative control (195 μL of sterile culture medium in each well), the second line to the positive control (seeded culture medium supplemented with 2% of DMSO), the third line was loaded twice with bacterial suspension, 8 μL of test product were placed in each well. Thereafter, a 0.5 cascade dilution was performed from this line.
(§8) The first column served as inhibition control. A sterile filter was then placed on the microplate, allowing the passage of gases but not of contaminants. The microplate was incubated at 37° C. under a humid atmosphere for 24 hours.
(§9) NB: The medium used is Mueller-Hinton (MH) medium for bacteria. All the tests were performed in duplicate.
(§10) 4) Reading of the Results
(§11) After incubation, the filter was replaced with a transparent film, and an OD reading was then taken in an iEMS plate spectrophotometer at 620 nm. Calculation of the minimum inhibitory concentration (MIC) was performed.

[2] = system: S. aureus ATCC25923; experiment: MIC determination by microplate dilution, S. aureus human strain; type: cell-based, Staphylococcus aureus; details: Staphylococcus aureus, ATCC25923, Gram-positive, Mueller-Hinton medium, 24 h, 37° C.
Protocol: as §1, §2, §3, §4, §5, §6, §7, §8, §9, §10, §11

[3] = system: CHO-K1 cells; experiment: WST1 cytotoxicity test on CHO-K1 cells; type: cell-based, Chinese hamster; details: Cricetulus griseus, read-out: IC50 (μg/mL) CHO
Protocol: Test WST1 was used to measure the cytotoxic activity of the products. This is a colorimetric test which makes it possible to measure the viability and the degree of cell proliferation. It is based on cleavage of the colorless tetrazolium salts WST-1 (4-[3-(4-iodophenyl)-2-(4-nitrophenyl)-2H-5-tetrazolio]-1,3-benzene disulfonate) with mitochondrial dehydrogenases to the yellow-colored formazan derivative, which may be quantified by spectrophotometry at 420-480 nm.
The WST1 test was performed on Chinese hamster ovary cells. The CHO-K1 cells (ATCC, USA) are kept in culture on McCoy's 5A medium supplemented with 10% fetal calf serum, 2 mM of L-glutamine and a mixture of penicillin-streptomycin (100 U/ml: 10 μg/mL). The culture is incubated at 37° C. under an atmosphere enriched in CO2 (5%), and subcultured every two days.
The cells are transferred into 96-well plates (25 000 cells/mL) in whole McCoy's 5A medium, and maintained for 24 hours at 37° C. under a humid atmosphere enriched in CO2 (5%). Increasing concentrations of test products are added to the wells in double tests and 8 growth controls containing the cells in the medium alone are included in each series of tests. After 24 hours at 37° C. (5% CO2), the culture medium is removed, the cells are rinsed in phosphate buffer (PBS) and 50 μL of PBS containing 10% of reagent WST1 are added to each well. After 20 minutes of incubation at 37° C., the results are read by spectrophotometry at 450 nm.
The results are expressed in dose-response relationships, modeled by nonlinear regression analysis using the TableCurve software. The 50% inhibitory concentration (IC50) represents the concentration of product that is capable of reducing the cell viability by 50%.

[4] = system: S. aureus (340); experiment: MIC determination by microplate dilution, S. aureus animal strain; type: cell-based, Staphylococcus aureus; details: Staphylococcus aureus, Gram-positive, Mueller-Hinton medium, 24 h, 37° C.
Protocol: as §1, §2, §3, §4, §5, §6, §7, §8, §9, §10, §11

[5] = system: E. coli (1956); experiment: MIC determination by microplate dilution, E. coli animal strain; type: cell-based, Escherichia coli; details: Escherichia coli, Gram-negative, Mueller-Hinton medium, 24 h, 37° C.
Protocol: as §1, §2, §3, §4, §5, §6, §7, §8, §9, §10, §11

[6] = system: S. intermedius (1051997); experiment: MIC determination by microplate dilution, S. intermedius animal strain; type: cell-based, Staphylococcus intermedius; details: Staphylococcus intermedius, Gram-positive, Mueller-Hinton medium, 24 h, 37° C.
Protocol: as §1, §2, §3, §4, §5, §6, §7, §8, §9, §10, §11

[7] = system: E. coli ATCC28922; experiment: MIC determination by microplate dilution, E. coli human strain; type: cell-based, Escherichia coli; details: Escherichia coli, ATCC28922, Gram-negative, Mueller-Hinton medium, 24 h, 37° C.
Protocol: as §1, §2, §3, §4, §5, §6, §7, §8, §9, §10, §11

[8] = system: P. aeruginosa (1051575); experiment: Potentiation of the doxycycline activity at 2 μg/mL; type: cell-based, Pseudomonas aeruginosa; details: in combination with doxycycline 2 μg/mL; 24 h, 37°
[9] = system: P. aeruginosa ATCC27853; experiment: MIC determination by microplate dilution, P. aeruginosa human strain; type: cell-based, Pseudomonas aeruginosa; details: Pseudomonas aeruginosa, ATCC27853, Gram-negative, Mueller-Hinton medium, 24 h, 37° C.
Protocol: as §1, §2, §3, §4, §5, §6, §7, §8, §9, §10, §11

[10] = system: E. faecalis ATCC29212; experiment: MIC determination by microplate dilution, E. faecalis human strain; type: cell-based, Enterococcus faecalis; details: Enterococcus faecalis, ATCC29212, Gram-positive, Mueller-Hinton medium, 24 h, 37° C.
Protocol: as §1, §2, §3, §4, §5, §6, §7, §8, §9, §10, §11

[11] = Table III, WST1, CHO-K1 cells, 24 h, concentration reducing cell viability by 50%

SMILES	MIC [1] [µg/mL]	MIC [2] [µg/mL]	IC50 ([3]; CHO-K1, 24 h) [µg/mL]	MIC [4] [µg/mL]	MIC [5] [µg/mL]	MIC [6] [µg/mL]	MIC [7] [µg/mL]	MIC - P. aeruginosa (1051575): content of compound of formula (I) to restore the doxycycline activity (at 2 μg/mL) [8] [µg/mL]	MIC [9] [µg/mL]	MIC [10] [µg/mL]	IC50 [3, 11] [µg/mL]
COC(=O)CC[C@@H](C)[C@H]1CCC2C3C(CC[C@@]21C)[C@@]1(C)CC[C@H](NCCCNCCCNCCCN)CC1C[C@H]3O (stereo partly drawn) [Compound (8), methyl 3β-norsperminochenodeoxycholate]	7 (≈ 12.1 µM)	4 (≈ 6.93 µM)	22 (≈ 38.1 µM)	4 (≈ 6.93 µM)	29 (≈ 50.3 µM)	2 (≈ 3.47 µM)	15 (≈ 26 µM)	1			
COC(=O)CC[C@@H](C)[C@H]1CCC2C3C(CC[C@@]21C)[C@@]1(C)CC[C@H](NCCCN(CCCN)CCCN)CC1C[C@@H]3O (stereo partly drawn) [(52), methyl 3β-(tris(3-aminopropyl)amine)ursodeoxycholate]	30 (≈ 52 µM)	14 (≈ 24.3 µM)		14 (≈ 24.3 µM)	30 (≈ 52 µM)		30 (≈ 52 µM)	7	14 (≈ 24.3 µM)	30 (≈ 52 µM)	
CC(C)OC(=O)CC[C@@H](C)[C@H]1CCC2C3C(C[C@H](O)[C@@]21C)[C@@]1(C)CC[C@H](NCCCN(CCCN)CCCN)CC1C[C@H]3O (stereo partly drawn) [(34), isopropyl 3β-(tris(3-aminopropyl)amine)cholate]	30 (≈ 48.3 µM)	15 (≈ 24.2 µM)		15 (≈ 24.2 µM)	30 (≈ 48.3 µM)	7 (≈ 11.3 µM)	30 (≈ 48.3 µM)	4	30 (≈ 48.3 µM)	30 (≈ 48.3 µM)	
CC(C)OC(=O)CC[C@@H](C)[C@H]1CCC2C3C(C[C@H](O)[C@@]21C)[C@@]1(C)CC[C@H](NCCN(CCN)CCN)CC1C[C@H]3O (stereo partly drawn) [(35), isopropyl 3β-(tris(2-aminoethyl)amine)cholate]	56 (≈ 96.7 µM)	28 (≈ 48.4 µM)			56 (≈ 96.7 µM)	14 (≈ 24.2 µM)	28 (≈ 48.4 µM)	7	56 (≈ 96.7 µM)	28 (≈ 48.4 µM)	
COC(=O)CC[C@@H](C)[C@H]1CCC2C3C(C[C@H](O)[C@@]21C)[C@@]1(C)CC[C@H](NCCCNCCCN)C[C@H]1C[C@H]3O (stereo partly drawn) [Compound (5), methyl 3β-norspermidinocholate]		3 (≈ 5.6 µM)		7 (≈ 13.1 µM)	27 (≈ 50.4 µM)	2 (≈ 3.73 µM)	14 (≈ 26.1 µM)		7 (≈ 13.1 µM)	3 (≈ 5.6 µM)	
COC(=O)CC[C@@H](C)[C@H]1CCC2C3CCC4C[C@@H](NCCCN(CCCN)CCCN)CC[C@]4(C)C3CC[C@@]21C (stereo partly drawn) [(46), methyl 3β-(tris(3-aminopropyl)amine)lithocholate]	28 (≈ 49.9 µM)	14 (≈ 25 µM)		7 (≈ 12.5 µM)	28 (≈ 49.9 µM)	4 (≈ 7.13 µM)	56 (≈ 99.8 µM)		28 (≈ 49.9 µM)	14 (≈ 25 µM)	30 (≈ 53.5 µM)
COC(=O)CC[C@@H](C)[C@H]1CCC2C3C(C[C@H](O)[C@@]21C)[C@@]1(C)CC[C@H](NCCCN(C)CCCN)C[C@H]1C[C@H]3O (stereo partly drawn) [(33), methyl 3β-(bis(3-aminopropyl)methylamine)cholate]	50 (≈ 90.9 µM)	14 (≈ 25.5 µM)		14 (≈ 25.5 µM)	50 (≈ 90.9 µM)	14 (≈ 25.5 µM)	27 (≈ 49.1 µM)		27 (≈ 49.1 µM)	14 (≈ 25.5 µM)	126 (≈ 229 µM)
COC(=O)CC[C@@H](C)[C@H]1CCC2C3CCC4C[C@@H](NCCCNCCCNCCCN)CC[C@]4(C)C3CC[C@@]21C (stereo partly drawn) [Compound (17), methyl 3β-norsperminolithocholate]	7 (≈ 12.5 µM)	16 (≈ 28.5 µM)		4 (≈ 7.13 µM)	7 (≈ 12.5 µM)	4 (≈ 7.13 µM)	28 (≈ 49.9 µM)		28 (≈ 49.9 µM)	4 (≈ 7.13 µM)	14 (≈ 25 µM)
COC(=O)CC[C@@H](C)[C@H]1CCC2C3CCC4C[C@@H](NCCCN(C)CCCN)CC[C@]4(C)C3CC[C@@]21C (stereo partly drawn) [(45), methyl 3β-(bis(3-aminopropyl)methylamine)lithocholate]	26 (≈ 50.2 µM)	12 (≈ 23.2 µM)		6 (≈ 11.6 µM)	6 (≈ 11.6 µM)	3 (≈ 5.79 µM)	26 (≈ 50.2 µM)		26 (≈ 50.2 µM)	12 (≈ 23.2 µM)	46 (≈ 88.8 µM)
COC(=O)CC[C@@H](C)[C@H]1CCC2C3CCC4C[C@@H](NCCCNCCCN)CC[C@]4(C)C3CC[C@@]21C (stereo partly drawn) [(18), methyl 3β-norspermidinolithocholate]	3 (≈ 5.95 µM)		80 (≈ 159 µM)	0.7 (≈ 1.39 µM)	3 (≈ 5.95 µM)	0.7 (≈ 1.39 µM)	32 (≈ 63.5 µM)	3			
COC(=O)CC[C@@H](C)[C@H]1CCC2C3CCC4C[C@@H](NCCNCCNCCNCCNCCN)CC[C@]4(C)C3CC[C@@]21C (stereo partly drawn) [(25), methyl 3β-(pentaethylenehexamine)lithocholate]	60 (≈ 99.2 µM)	8 (≈ 13.2 µM)		8 (≈ 13.2 µM)	30 (≈ 49.6 µM)	4 (≈ 6.61 µM)	30 (≈ 49.6 µM)		60 (≈ 99.2 µM)	15 (≈ 24.8 µM)	76 (≈ 126 µM)
CC(C)OC(=O)CC[C@@H](C)[C@H]1CCC2C3C(CC[C@@]21C)[C@@]1(C)CC[C@H](NCCNCCNCCNCCNCCN)CC1C[C@@H]3O (stereo partly drawn) [(24), isopropyl 3β-(pentaethylenehexamine)ursodeoxycholate]	130 (≈ 200 µM)			32 (≈ 49.3 µM)	65 (≈ 100 µM)	8 (≈ 12.3 µM)					
CC(C)OC(=O)CC[C@@H](C)[C@H]1CCC2C3CCC4C[C@@H](NCCCNCCCNCCCN)CC[C@]4(C)C3CC[C@@]21C (stereo partly drawn) [Compound (15), isopropyl 3β-norsperminolithocholate]	2 (≈ 3.4 µM)	7 (≈ 11.9 µM)	15 (≈ 25.5 µM)	7 (≈ 11.9 µM)	7 (≈ 11.9 µM)	1 (≈ 1.7 µM)	14 (≈ 23.8 µM)	2			
CC(C)OC(=O)CC[C@@H](C)[C@H]1CCC2C3C(CC[C@@]21C)[C@@]1(C)CC[C@H](NCCCN(CCCN)CCCN)CC1C[C@@H]3O (stereo partly drawn) [(42), isopropyl 3β-(tris(3-aminopropyl)amine)ursodeoxycholate]	60 (≈ 99.2 µM)			30 (≈ 49.6 µM)	120 (≈ 198 µM)	15 (≈ 24.8 µM)		4			
